{"source": "patent US11779625B2", "about": "“Composition and application thereof in preparing product for protecting mitochondria” (INFINITUS (CHINA) COMPANY LTD., priority 2021, dated 2023)", "key": {"[1]": {"tested_on": "Slc25a46−/− mice", "assay": "SOD enzyme activity in liver tissues after intragastric intervention", "assay_type": "in vivo, mouse", "settings": "intragastric every day for 10 days, Example 400, Comparative example 1 100, 2 244, 3 56, 4 500 mg/kg", "procedure": "Animal experimental subjects were Slc25a46 knockout (Slc25a46−/−) mice of 1 month old, which were divided into a blank solvent control group (3 mice) and experimental groups (4 mice in each group). Under a same SPF level, the mice were fed with a full-nutrient feed prepared according to an AIN93G formula of Jiangsu Xietong Biology Co., Ltd., and subjected to intragastric administration every day, which lasted for a period of 10 days. […] The blank solvent control group was administered intragastrically with solvent water. After the intragastric administration experiment, brain tissues and liver tissues of the mice were collected for physiological and biochemical detections respectively, and an oxidative stress level and an ability of delaying aging were analyzed.\n9 times volume of ice normal saline was added according to a ratio of a tissue weight (g) to a tissue volume (ml) of 1:9, and the tissues were cut into pieces with a surgical scissor, prepared into 10% tissue homogenate with a homogenizer (the homogenation lasted 10 seconds once, and was continuously carried out for 3 times to 5 times at intervals of 5 seconds on ice), and centrifuged at 2500 rpm to 3000 rpm for 10 minutes. A supernatant was taken for subsequent determination. […]"}, "[2]": {"tested_on": "Slc25a46−/− mice", "assay": "NAMPT enzyme activity in liver tissues (ELISA kit)", "assay_type": "in vivo, mouse", "settings": "intragastric every day for 10 days, Example 400, Comparative example 1 100, 2 244, 3 56, 4 500 mg/kg", "protocol": "A certain amount of liver tissues of the mice were homogenized, and a supernatant was taken. […] Marker wells, blank wells and sample wells were provided, 50 μL of markers with different concentrations were added into the marker wells, 50 μL of to-be-tested sample was added into the sample wells, and 50 μL of sample diluent was added into the blank wells. […] 50 μL of substrate A and 50 μL of substrate B were respectively added into each well, and an OD value of each well at a wavelength of 450 nm was measured within 15 minutes. Data was recorded, and statistical analysis was made with Prism software."}, "[3]": {"tested_on": "Slc25a46−/− mouse embryonic fibroblasts", "assay": "MTT in-vitro cytotoxicity experiment (cell morphology and viability), Slc25a46−/− cells", "assay_type": "cell-based", "settings": "24 hours; for effect on cell viability/growth (MTT): Slc25a46−/− cells", "procedure": "(§1) The MEF cells were derived from wild-type fetal mice (WT) and Slc25a46 homozygous fetal mice (Slc25a46−/−). Pregnant mice were anesthetized and killed, and dissected to obtain mouse embryos, and bodies of fetal mice were obtained, and washed with PBS for 3 times. Clean mouse embryonal tissues were transferred into a culture dish, and cut into pieces, 2 mL of trypsin was added into the tissue pieces, and continuously cut into pieces for several minutes. Then, 5 mL of trypsin was added into the culture dish above, and blown up and down with a straw vigorously, and the culture dish was put into an incubator for incubation for 20 minutes to 30 minutes. The tissues cut into pieces were taken out of the incubator, and added with about 20 mL of MEF medium. A tissue mixture was transferred into each flask and placed into an incubator for overnight incubation. Then, growth of fibroblasts was observed regularly and the culture medium was replaced. When the fibroblasts covered 90% of the culture flask, the mouse embryonic fibroblasts were collected for subsequent experiment.\n(§2) 100 uL of WT mouse cells and Slc25a46−/− mouse cells with a cell concentration of 3.5×10^5 cells/mL were inoculated into a 96-well plate, and cultured in a CO2 incubator at 37° C. for 24 hours. […] An absorbance at 570 nm was detected with a multi-functional microplate scanner, and effects of test solutions with different concentrations on cell viability were calculated with a blank control as 100%."}, "[4]": {"tested_on": "WT mouse embryonic fibroblasts", "assay": "MTT in-vitro cytotoxicity experiment (cell morphology and viability), WT cells", "assay_type": "cell-based", "settings": "24 hours; for effect on cell viability/growth (MTT): WT cells", "procedure": "as §1, §2"}, "[5]": {"settings": "high concentration (1,000 μg/mL to 2,000 μg/mL)"}}, "note": "Entries after “also recorded” stand apart in the source; their conditions may differ.", "data": [{"smiles": "NC(=O)c1cccnc1", "note": "[Comparative example 4, nicotinamide]", "values": [{"measurement": "SOD enzyme activity-Liver tissue", "setting": "[1]", "value": "2.22 ± 0.02", "unit": "U/mgprot"}, {"measurement": "NAMPT enzyme activity-Liver tissue", "setting": "[2]", "value": "0.32 ± 0.01", "unit": "ng/mg protein"}, {"measurement": "effect on cell morphology", "setting": "[3]; Slc25a46−/− MEF cells, up to 2,000 μg/mL", "value": "no effect on the cell morphology"}, {"measurement": "effect on cell viability/growth (MTT)", "setting": "[3]; 125 μg/mL to 2,000 μg/mL", "value": "no effect on the viability of the Slc25a46−/− cells and a viability of the WT cells"}, {"measurement": "effect on cell viability/growth (MTT)", "setting": "[3]; [5]", "value": "promotes growth of the Slc25a46−/− cells and the WT cells, without a concentration effect"}, {"measurement": "effect on cell morphology", "setting": "[4]; WT MEF cells, up to 2,000 μg/mL", "value": "no effect on the cell morphology"}, {"measurement": "effect on cell viability/growth (MTT)", "setting": "[4]; 125 μg/mL to 2,000 μg/mL", "value": "no effect on the viability of the Slc25a46−/− cells and a viability of the WT cells"}, {"measurement": "effect on cell viability/growth (MTT)", "setting": "[4]; [5]", "value": "promotes growth of the Slc25a46−/− cells and the WT cells, without a concentration effect; also recorded: promote proliferation of the WT cells"}]}]}
